Assay results from patent US5098900A, “3(2H)pyridazinone, process for its preparation and anti-allergic agent containing it” (Nissan Chemical Industries Ltd., priority 1984, dated 1992).

Key:
ddY strain male = test: Acute toxicity test, method-(2), intraperitoneal injection; format: in vivo, ddY strain male (4 weeks old); conditions: 7 days
Protocol: The lethal ratio was determined in ddY strain male (4 weeks old) at 7 days after the intraperitoneal injection of test compounds.

LTC4 = LTC4 antagonism in isolated guinea-pig trachea (LTC4-induced contraction); format: cell-based; conditions: 5 min, test compound 10^-5 g/ml, LTC4 2×10^-8 g/ml, guinea-pig trachea; for inhibition at 10 µg/mL: Cavia porcellus, read-out: LTC4 antagonism
Protocol: (§1) (ii) LTC4 and LTD4 antagonisms in guinea-pig trachea
(§2) Antagonism for LTC4 and LTD4 were determined in isolated guinea-pig trachea prepared as spiral strip. 10 Tracheal preparations were suspended under 1 g tension in […] and they were incubated for 1 hr prior to use. Contractile responses to LTC4 (2×10^-8 g/ml) and LTD4 (2×10^-8 g/ml) were obtained after the maximal response to histamine (10^-4 M). Test compounds dissolved in 100% dimethyl sulfoxide were added to the organ baths (final concentration of 10^-5 g/ml) 5 min prior to LTC4 and LTD4 addition, and then contractile responses to LTC4 and LTD4 were compared with those of control which was obtained from a paired trachea in the absence of test compounds. LTC4 - and LTD4 -induced contractions were expressed as a percentage of the maximal response to histamine. The antagonism was determined as follows: Antagonism (%)=(1.0-% contraction in test/% contraction in control)×100

LTD4 = LTD4 antagonism in isolated guinea-pig trachea (LTD4-induced contraction); format: cell-based; conditions: 5 min, test compound 10^-5 g/ml, LTD4 2×10^-8 g/ml; for inhibition at 10 µg/mL: Cavia porcellus
Protocol: as §1, §2

[1] = system: antigen-induced anaphylactic bronchoconstriction; test: Effect on anaphylactic bronchoconstriction in passively sensitized guinea-pig; format: in vivo; conditions: 2 mg/kg, i.v.
Protocol: (iii) Effect on anaphylactic bronchoconstriction in passively sensitized guinea-pig
Male guinea-pigs (350-450 g) were passively sensitized with intravenous (i.v.) injection of 0.125 ml rabbit anti-EA serum (Cappel Laboratories) 1 day preceding the experiment. […] The right jugular vein was cannulated for the administration of the all agents and trachea was cannulated to record total pulmonary resistance. Guinea-pigs were artificially ventilated by a small animal respirator (Shinano, Model SN-480-7) set at a stroke volume of 4-5 ml and a rate of 50 breaths per min. […] The increase in air overflow volume was expressed as a percentage of the maximum bronchoconstriction obtained by clamping off the trachea. Following surgical preparation, the animals were pretreated with indomethacin (1.0 mg/kg, 10 min), pyrilamine (2 mg/kg, 6 min) and propranolol (0.1 mg/kg, 5 min) prior to the EA challenge (0.1 or 10 mg/kg). All test compounds, 2 mg/kg in 3% Tween 80 or 3% PEG-400, were administered 1 min before the EA challenge. Inhibition (%) of bronchoconstriction was determined as follows Inhibition (%)=(1.0% -maximum bronchoconstriction in test/% maximum bronchoconstriction in control) ×100.
In the Table, the dose of EA was 10 mg/kg, and each compound was dissolved or suspended in 3% Tween 80.
In the Table, the dose of EA was 0.1 mg/kg.
*: PEG represents polyethylene glycol400.

## CCCOc1cccc(CNc2cnn(C(C)C)c(=O)c2Cl)c1 [compound 94]
ddY strain male; 200 mg/kg
  Lethal ratio (Death number/Experimental number): 0/2
LTC4
  inhibition at 10 µg/mL: 83%
LTD4
  inhibition at 10 µg/mL: 75%

## CCOc1ccc(CNc2cnn(C(C)C)c(=O)c2Cl)cc1 [compound 91]
ddY strain male; 100 mg/kg
  Lethal ratio (Death number/Experimental number): 0/2
[1]; EA 0.1 mg/kg, PEG (polyethylene glycol 400)
  Inhibition of anaphylactic bronchoconstriction: 73%
LTD4
  inhibition at 10 µg/mL: 93%

## Cc1ccc(CNc2cnn(C(C)C)c(=O)c2Cl)cc1 [compound 77]
ddY strain male; 200 mg/kg
  Lethal ratio (Death number/Experimental number): 0/2
ddY strain male; 400 mg/kg
  Lethal ratio (Death number/Experimental number): 0/2
LTD4
  inhibition at 10 µg/mL: 90%

## CCN(CC)c1ccc(CNc2cnn(C(C)(C)C)c(=O)c2Cl)cc1 [compound 29]
LTC4
  inhibition at 10 µg/mL: 68%

## CC(C)(C)n1ncc(NCc2ccc(/C=C/C(=O)O)cc2)c(Cl)c1=O [compound 24]
LTC4
  inhibition at 10 µg/mL: 7%

## Cc1ccccc1CNc1cnn(C(C)C)c(=O)c1Cl [compound 78]
ddY strain male; 200 mg/kg
  Lethal ratio (Death number/Experimental number): 0/2
ddY strain male; 400 mg/kg
  Lethal ratio (Death number/Experimental number): 0/1
LTD4
  inhibition at 10 µg/mL: 97%

## CCn1ncc(NCc2ccc(OC)c(OC)c2)c(Cl)c1=O [Compound No. 13]
[1]; EA 10 mg/kg, 3% Tween 80
  Inhibition of anaphylactic bronchoconstriction: 43%
LTD4
  inhibition at 10 µg/mL: 76%

## CCOc1ccccc1CNc1cnn(CC)c(=O)c1Cl [compound 90]
ddY strain male; 200 mg/kg
  Lethal ratio (Death number/Experimental number): 0/2
ddY strain male; 400 mg/kg
  Lethal ratio (Death number/Experimental number): 0/2
LTD4
  inhibition at 10 µg/mL: 96%

## COc1ccc(CNc2cnn(C(C)C)c(=O)c2Cl)cc1OC [Compound No. 15]
[1]; EA 10 mg/kg, 3% Tween 80
  Inhibition of anaphylactic bronchoconstriction: 56%
LTC4
  inhibition at 10 µg/mL: 100%
LTD4
  inhibition at 10 µg/mL: 80%

## CCCOc1cc(OC)ccc1CNc1cnn(CC)c(=O)c1Cl [compound 112]
[1]; EA 0.1 mg/kg, Tween 80
  Inhibition of anaphylactic bronchoconstriction: 49%
LTD4
  inhibition at 10 µg/mL: 86%

## CCCOc1cccc(CNc2cnn(CC)c(=O)c2Cl)c1 [compound 93]
LTC4
  inhibition at 10 µg/mL: 93%
LTD4
  inhibition at 10 µg/mL: 96%

## CCOc1cc(CNc2cnn(CC)c(=O)c2Cl)ccc1OC [compound 102]
ddY strain male; 100 mg/kg
  Lethal ratio (Death number/Experimental number): 0/2
LTC4
  inhibition at 10 µg/mL: 97%
LTD4
  inhibition at 10 µg/mL: 86%

## COC(=O)/C=C/c1ccc(CNc2cnn(C(C)(C)C)c(=O)c2Cl)cc1 [compound 53]
[1]; EA 10 mg/kg, 3% Tween 80
  Inhibition of anaphylactic bronchoconstriction: 38%
LTD4
  inhibition at 10 µg/mL: 38%

## CCn1ncc(NCc2ccc(C)cc2C)c(Cl)c1=O [compound 79]
ddY strain male; 200 mg/kg
  Lethal ratio (Death number/Experimental number): 0/2
[1]; EA 0.1 mg/kg, Tween 80
  Inhibition of anaphylactic bronchoconstriction: 61%
LTD4
  inhibition at 10 µg/mL: 100%

## CCCn1ncc(NCc2ccc(OC)c(OC)c2)c(Cl)c1=O [Compound No. 14, 4-Chloro-5-(3,4-dimethoxybenzylamino)-2-n-propyl-3-(2H)pyridazinone]
[1]; EA 10 mg/kg, 3% Tween 80
  Inhibition of anaphylactic bronchoconstriction: 28%
LTC4
  inhibition at 10 µg/mL: 100%
LTD4
  inhibition at 10 µg/mL: 36%

## CCN1CCN(Cc2ccc(CNc3cnn(C(C)(C)C)c(=O)c3Cl)cc2)CC1 [compound 49]
LTC4
  LTC4 antagonism: 8%

## CCn1ncc(NCc2ccc(OC)cc2OC)c(Cl)c1=O [compound 99]
ddY strain male; 100 mg/kg
  Lethal ratio (Death number/Experimental number): 0/2
LTD4
  inhibition at 10 µg/mL: 99%

## Cc1ccc(CNc2cnn(C(C)C)c(=O)c2Cl)c(C)c1 [Compound No. 80]
ddY strain male; 200 mg/kg
  Lethal ratio (Death number/Experimental number): 0/2
ddY strain male; 400 mg/kg
  Lethal ratio (Death number/Experimental number): 0/1
LTD4
  inhibition at 10 µg/mL: 99%

## CCn1ncc(NCc2cccc(OC)c2)c(Cl)c1=O [Compound No. 6]
LTC4
  inhibition at 10 µg/mL: 33%
LTD4
  inhibition at 10 µg/mL: 62%

## CCOc1ccc(CNc2cnn(C(C)C)c(=O)c2Cl)cc1OC [compound 107]
LTD4
  inhibition at 10 µg/mL: 65%

## CCOc1ccc(CNc2cnn(CC)c(=O)c2Br)cc1 [compound 155]
LTD4
  inhibition at 10 µg/mL: 60%

## CCOCCNC(=O)c1ccc(CNc2cnn(C(C)(C)C)c(=O)c2Cl)cc1 [compound 56]
LTD4
  inhibition at 10 µg/mL: 19%

## CC(C)n1ncc(NCc2cccc(O)c2)c(Cl)c1=O [Compound No. 137, 4-Chloro-5-(3-hydroxybenzylamino)-2-i-propyl-3-(2H)pyridazinone]
LTD4
  inhibition at 10 µg/mL: 96%

## COc1cc(CNc2cnn(C(C)(C)C)c(=O)c2Cl)cc(OC)c1OC [compound 120]
LTD4
  inhibition at 10 µg/mL: 26%

## CCCOc1cc(CNc2cnn(C(C)C)c(=O)c2Br)ccc1OC [compound 167]
LTD4
  inhibition at 10 µg/mL: 96%

## CCOc1cccc(CNc2cnn(C(C)C)c(=O)c2Cl)c1O [compound 127]
LTD4
  inhibition at 10 µg/mL: 76%

## CCOc1cccc(CNc2cnn(CC)c(=O)c2Cl)c1OCc1ccccc1 [compound 116]
LTD4
  inhibition at 10 µg/mL: 89%

## Cc1cccc(CNc2cnn(C(C)C)c(=O)c2Cl)c1 [compound 76]
ddY strain male; 200 mg/kg
  Lethal ratio (Death number/Experimental number): 0/2
ddY strain male; 400 mg/kg
  Lethal ratio (Death number/Experimental number): 0/1
LTD4
  inhibition at 10 µg/mL: 97%

## CN(C)CCNC(=O)c1ccc(CNc2cnn(C(C)(C)C)c(=O)c2Cl)cc1 [compound 58]
LTD4
  inhibition at 10 µg/mL: 23%

## CCCOc1cc(CNc2cnn(CC)c(=O)c2Cl)ccc1O [compound 134]
LTD4
  inhibition at 10 µg/mL: 75%

## CCOc1ccc(CNc2cnn(C(C)C)c(=O)c2Br)cc1 [Compound No. 164, 4-Bromo-5-(4-ethoxybenzylamino)-2-i-propyl-3(2H)pyridazinone]
LTD4
  inhibition at 10 µg/mL: 82%

## COc1ccc(CNc2cnn(C(C)C)c(=O)c2Br)cc1 [compound 162]
LTD4
  inhibition at 10 µg/mL: 100%

## CC(C)(C)n1ncc(NCc2ccc(C(=O)N3CCOCC3)cc2)c(Cl)c1=O [compound 40]
LTC4
  inhibition at 10 µg/mL: 17%

## CC(C)n1ncc(NCc2ccc(N(C)C)cc2)c(Cl)c1=O [compound 26]
LTD4
  LTD4 antagonism: 38%

## COC(=O)CCCCOc1cc(CNc2cnn(C(C)C)c(=O)c2Cl)ccc1OC [compound 145]
LTD4
  inhibition at 10 µg/mL: 81%

## CN(C)c1ccc(CNc2cnn(C(C)(C)C)c(=O)c2Br)cc1 [compound 47]
LTD4
  LTD4 antagonism: 65%

## CCOc1cccc(CNc2cnn(CC)c(=O)c2Br)c1 [compound 156]
LTD4
  inhibition at 10 µg/mL: 72%

## CC(C)n1ncc(NCc2cccc(OCc3ccccc3)c2)c(Cl)c1=O [Compound No. 95, 4-Chloro-5-(3-benzyloxybenzylamino)-2-i-propyl-3-(2H)pyridazinone]
LTD4
  inhibition at 10 µg/mL: 62%

## CN(C)CCCNC(=O)c1ccc(CNc2cnn(C(C)(C)C)c(=O)c2Cl)cc1 [compound 59]
LTC4
  inhibition at 10 µg/mL: 17%

## CCOc1cccc(CNc2cnn(C(C)C)c(=O)c2Cl)c1OCc1ccccc1 [compound 114]
LTD4
  inhibition at 10 µg/mL: 77%

## CN(C)Cc1ccc(CNc2cnn(C(C)(C)C)c(=O)c2Cl)cc1 [compound 48]
LTC4
  inhibition at 10 µg/mL: 30%

## CC(C)n1ncc(NCc2ccc3c(c2)OCO3)c(Cl)c1=O [compound 119]
[1]; EA 0.1 mg/kg, Tween 80
  Inhibition of anaphylactic bronchoconstriction: 33%
LTC4
  inhibition at 10 µg/mL: 100%
LTD4
  inhibition at 10 µg/mL: 100%

## CC(C)n1ncc(NCc2ccccc2)c(Cl)c1=O [Compound No. 74, 4-Chloro-5-(benzylamino)-2-i-propyl-3(2H)pyridazinone]
[1]; EA 0.1 mg/kg, Tween 80
  Inhibition of anaphylactic bronchoconstriction: 31%
LTD4
  inhibition at 10 µg/mL: 91%

## CCOc1cc(OC)ccc1CNc1cnn(C(C)C)c(=O)c1Cl [compound 109]
[1]; EA 0.1 mg/kg, Tween 80
  Inhibition of anaphylactic bronchoconstriction: 30%
LTD4
  inhibition at 10 µg/mL: 92%

## CC(C)n1ncc(NCc2cccc(OCCCCC(=O)O)c2)c(Cl)c1=O [Compound No. 142, 4-Chloro-5-[3-(4-carboxy)butoxybenzylamino]-2-i-propyl-3(2H)pyridazinone]
LTD4
  inhibition at 10 µg/mL: 41%

## CCCN(CCC)Cc1ccc(CN(C)c2cnn(C(C)(C)C)c(=O)c2Cl)cc1 [Compound No. 43, 4-Chloro-5-(4-di-n-propylaminomethyl-N-methylbenzylamino)-2-t-butyl-3(2H)pyridazinone]
[1]; EA 10 mg/kg, 3% Tween 80
  Inhibition of anaphylactic bronchoconstriction: 14%
LTC4
  inhibition at 10 µg/mL: 57%
